Laboratory results taken from patent publication US11617748B2, “Meclozine derivatives and diclazuril derivatives for use in the prevention and/or the treatment of disorders associated to the inflammation induced by P. acnes” (priority 2016, dated 2023).

Key:
TNF-α production = TNF-α production by the monocytic cell line; type: cell-based, human; details: data not shown
Procedure: (§1) ELISA. Human IL-1β, IL-8, hBD-2 and TNF-α protein concentration were measured in the supernatants of stimulated cells using various ELISA Sets (all from Ready-Set-Go from eBioscience, except hBD-2 measurements: Human DEFB4A/BD-2 ELISA Kit from LSBio) according to the manufacturer's instructions. We used serial dilutions of recombinant human IL-1β, IL-8, hBD-2 and TNF-α for standard curve. The optical density was determined at 450 nm at a wavelength correction of 540 nm.
Both molecules, were tested to inhibit the production of IL-1β by the monocytic cell line. ThP-1 cells were pretreated with diclazuril and meclozine, at the concentrations ranging from 0.39 to 50 μM, for 24 h and then stimulated with P. acnes suspension as described in Materials and Methods. The production of IL-1β was measured on culture supernatant by ELISA and the viability of cells was estimated by MTT assay (FIG. 2).

IL-1β mRNA = assay: RT-qPCR of P. acnes-induced IL-1β mRNA in ThP-1 cells; type: cell-based, human; details: 10 μM, 24 h pre-treatment, 5 h P. acnes
Procedure: RT-qPCR assay. […] Total RNA was isolated using the NucleoSpin RNA and treated with DNAse I, according to the manufacturer's instructions (Macherey-Nagel, Hoerdt, France). RNA concentration was determined at 260 nm on a nanodrop (Labtech, France) and the ratios for all samples were ranging between 1.6 and 1.9. Complementary DNA were generated from 100 ng of total RNA at 50° C. for 10 min followed by the quantitative PCR analysis, carried out in the LightCycler Nano (Roche), and performed with the iTaq Universal SYBR Green One-Step kit (Bio-Rad Laboratories, Hercules, Calif., USA) with a 2-step cycles conditions set at 95° C. for 60 s followed by 40 cycles of 95° C. for 15 s, 68° C. for 60 s, and ended by a melting curve at 65-95° C., 60 s with 0.1° C./s. From the amplification curves, the threshold cycles (Ct) are determined for the studied genes. The amount of relative RNA in stimulated cells relative to control cells is calculated according to the method of 2Act and expressed as a relative fold change expression normalized to gene expression of internal control (GAPDH). IL-8 primers were used: sens 5′-[sequence]-3′, anti-sens 5′-[sequence]-3′ and GAPDH primers: sens 5′-[sequence]-3′, GADPH anti-sens 5′-[sequence]-3′. Sample quantification was made in triplicate.
Controls experiments were done with unpretreated/unstimulated cell and with P. acnes stimulated cells only.

Akt = assay: Western blot of p-Akt/Akt in P. acnes-stimulated HaCaT cells; type: cell-based, human; details: 25 μM, 24 h pre-treatment
Procedure: Western Blot analysis. Whole cell protein extracts (25 μg) were separated by electrophoresis (LDS-PAGE) under denaturing conditions with NuPAGE Novex 4-12% Bis-Tris gel (1 mm, 12 wells, Invitrogen, UK) and proteins were transferred onto nitrocellulose membranes and saturated in 20 ml of saturation buffer consisting of TBS 1× (Tris Buffered Saline) containing 200 mM Tris, 1.4 M NaCl (pH 7.6), 5% no fat milk, 0.1% Tween 20 for 1 h. […] After washing to remove unbound antibodies, bound primary antibodies were detected by incubation for 1 h using secondary antibody against rabbit- and mouse IgG (Santa Cruz Biotechnology, SC-2357, 1:5000 and SC-2005, 1:5000, respectively). Unbound material was removed by washing and peroxidase activity was detected in a chemiluminescence assay (WesternBright ECL, Advansta, Menlo Park, USA). […]

IL-8 production = assay: PGN-induced IL-8 production in HaCaT keratinocytes (ELISA); type: cell-based, human; details: 6.25 μM, 24 h pre-treatment, PGN 5, 10, 20 μg/ml for 18 h
Procedure: as §1
Previously it has been shown that diclazuril and meclozine were able to inhibit IL-8 and IL-1β productions at the transcriptional and […] levels in pretreated cells stimulated with P. acnes. Here, it is investigated if the nature of the cell stimuli would have an impact on the diclazuril and meclozine effects on the IL-8 and IL-1β productions. Both, HaCaT and ThP-1 cell lines were pretreated with several concentrations of diclazuril and meclozine ranging from 0.39 to 25 μM for 24 h, and then stimulated with 3 different concentrations of peptidoglycanne (PGN) and lipoteicoic acid (LTA) at 5, 10 and 20 μg/ml for 18 h at 37° C. […] Pretreatment of keratinocytes with diclazuril decreased the production of IL-8 by an average of 65% at 6.25 μM regardless of the initial PGN dose used (FIG. 5A). Same results were obtained with meclozine and at 6.25 μM the IL-8 production was reduced by 60% (FIG. 5B).

[1] = test system: P. acnes-induced ear inflammation; assay: In vivo model of P. acnes-induced inflammation in mouse ears; details: mice; for decrease of the ear inflammation: topical, each day for 3 days, score over 96 h
Procedure: This model is based on the capacity of mouse ears to react while P. acnes is intradermally injected. The inflammatory reaction is evaluated each day over a period of 4 days after P. acnes injection by measuring the thickness of the ears, the redness as well as the presence of a desquamation and/or small pustules. At the end of the experiment, final measurement of inflammation was realized and photographic pictures of ears were taken. Then, mice were euthanized and ears were immediately fixed in a formalin-containing buffer for a future histological analysis. The experimental design consisted of 3 groups containing 10 mice each. 1) PBS corresponds to the non-treated group injected with PBS. 2) PA+Vehicle TOPIC corresponds to P. acnes injected in ears treated with Vaseline alone. 3) PA+diclazuril corresponds to P. acnes injected in ears treated with 1.3% diclazuril mixed with Vaseline. The preparation of the 1.3% diclazuril gel consisted of extemporaneously gently mixing 6.5 mg of diclazuril with […] for 1 min at room temperature (21° C.) and then directly applied to the mouse ears. This model is based on the capacity of mouse ears to react while P. acnes is intradermally injected. The inflammatory reaction is evaluated each day over a period of 4 days after P. acnes injection by measuring the thickness of the ears, the redness as well as the presence of a desquamation and/or small pustules. At the end of the experiment, final measurement of inflammation was realized and photographic pictures of ears were taken. Then, mice were euthanized and ears were immediately fixed in a formalin-containing buffer for a future histological analysis.

[2] = 1% meclozine gel topical, vs PA+Vehicle

| Structure (SMILES) | inhibition of TNF-α production (TNF-α production) | inhibition of IL-1β mRNA production (IL-1β mRNA) | phosphorylation of Akt induced by P. acnes (Akt) | decrease of PGN-induced IL-8 production (IL-8 production) | decrease of the ear inflammation ([1]; 1% meclozine gel (Vaseline, DMSO, Solutol/water)) | ear thickness (histological analysis) [1, 2] | leukocyte infiltration (histological analysis) [1, 2] | decrease of the ear inflammation ([1]; 1.3% diclazuril in Vaseline) |
| --- | --- | --- | --- | --- | --- | --- | --- | --- |
| Cc1cccc(CN2CCN(C(c3ccccc3)c3ccc(Cl)cc3)CC2)c1 (stereo not drawn) [meclozine, Meclozine] | no effect | ≤ 38% | prevented the phosphorylation | 60% | 29.5% | decrease | decrease |  |
| N#CC(c1ccc(Cl)cc1)c1c(Cl)cc(-n2ncc(=O)[nH]c2=O)cc1Cl (stereo not drawn) [diclazuril, Diclazuril] | no effect | up to 91% | prevented the phosphorylation | 65% |  |  |  | 37% |
